Source: patent US20150164762A1, “USE OF ETHANOLAMINE PHOSPHATE” (priority 2012, published 2015)
Values joined by “and” are separate entries in the source; they are usually repeats but may differ in a detail not shown here. Equal values may be shown once.

Tested on: BEAS-2B
Experiment: Comprehensive gene expression analysis with Whole Human Genome DNA microarray after EP treatment
Format: cell-based
Experimental: Cells of the established normal human airway epithelial cell line BEAS-2B were used in the experiment. These cells were expansively cultured in 10% FBS RPMI-1640, and seeded at a density of 1×10^5/cm^2 on a 24-well plate. After 24 hours 0.1% FBS RPMI-1640 was substituted, and EP was administered to a final concentration of 0 or 1 mM (n=4). After 24 hours, the cells were used as the DNA microarray samples. RNA was extracted using a QIAGEN RNeasy Mini Kit. The DNA microarray test was performed using a Whole Human Genome DNA microarray 4×44K (Agilent), and the necessary labeling reagents and the like for the DNA microarray test were all from Agilent. The DNA microarray test data were analyzed statistically with GeneSpring (Agilent) dedicated analysis software, and gene function analysis (Gene Ontology (GO) analysis) was performed based on differential expression. The purpose of the GO analysis is to determine stochastically the degree to which gene sets with statistically significant differential expression correspond to known functional classification gene sets. […] The p-value is calculated according to the following formula.

[1] = probe A_23_P30122, NM_000586, EP vs control
[2] = probe A_23_P34804, 1 mM EP, 24 h
[3] = probe A_23_P37736, 1 mM EP, 24 h
[4] = probe A_23_P40453, NM_001236, EP vs control
[5] = probe A_23_P45133, NM_27087, EP vs control
[6] = probe A_23_P48740, NM_013989, EP vs control
[7] = probe A_23_P51361, NM_175852, EP vs control
[8] = probe A_23_P53467, 1 mM EP, 24 h
[9] = probe A_23_P54144, 1 mM EP, 24 h
[10] = probe A_23_P55544, 1 mM EP, 24 h
[11] = probe A_23_P56922, 1 mM EP, 24 h
[12] = probe A_23_P56933, 1 mM EP, 24 h
[13] = probe A_23_P58180, NM_207352, EP vs control
[14] = probe A_23_P62959, 1 mM EP, 24 h
[15] = probe A_23_P63898, 1 mM EP, 24 h
[16] = probe A_23_P64129, NM_006410, EP vs control
[17] = probe A_23_P64129, 1 mM EP, 24 h
[18] = probe A_23_P67169, NM_000641, EP vs control
[19] = probe A_23_P68487, NM_001719, EP vs control
[20] = probe A_23_P69030, 1 mM EP, 24 h
[21] = probe A_23_P70398, NM_001025370, EP vs control
[22] = probe A_23_P72096, NM_000575, EP vs control
[23] = probe A_23_P72096, 1 mM EP, 24 h
[24] = probe A_23_P72285, 1 mM EP, 24 h
[25] = probe A_23_P74081, 1 mM EP, 24 h
[26] = probe A_23_P74380, 1 mM EP, 24 h
[27] = probe A_23_P76078, NM_016584, EP vs control
[28] = probe A_23_P81805, NM_001025366, EP vs control
[29] = probe A_23_P82550, 1 mM EP, 24 h
[30] = probe A_23_P87560, 1 mM EP, 24 h
[31] = probe A_23_P88404, 1 mM EP, 24 h
[32] = probe A_23_P88589, 1 mM EP, 24 h
[33] = probe A_23_P89550, 1 mM EP, 24 h
[34] = probe A_23_P89835, 1 mM EP, 24 h
[35] = probe A_23_P90601, NM_182915, EP vs control
[36] = probe A_23_P91504, 1 mM EP, 24 h

## NCCOP(=O)(O)O [EP, Ethanolamine phosphate]
Probe A_23_P29754, NM_203314, EP vs control
  BDH1 gene expression, log2 [ratio]: 0.548
[1]
  IL2 gene expression, R* ratio to control: 0.537 times
  IL2 gene expression, log2 [ratio]: −0.898
[2]
  NTRK1 expression R: Ratio to control: 0.261 times
  NTRK1 expression log2 [ratio]: −1.936
[3]
  TNFRSF17 expression R*: Ratio to control: 2.525 times
  TNFRSF17 expression log2 [ratio]: 1.336
[4]
  CBR3 gene expression, R* ratio to control: 1.406 times
  CBR3 gene expression, log2 [ratio]: 0.491
[5]
  CSF1 gene expression, R* ratio to control: 0.602 times
  CSF1 gene expression, log2 [ratio]: −0.732
[6]
  DIO2 gene expression, R* ratio to control: 1.694 times
  DIO2 gene expression, log2 [ratio]: 0.761
[7]
  TXLNA gene expression, R* ratio to control: 0.560 times
  TXLNA gene expression, log2 [ratio]: −0.837
[8]
  IKBIP expression R*: Ratio to control: 0.626 times
  IKBIP expression log2 [ratio]: −0.675
[9]
  BMP4 expression R*: Ratio to control: 1.820 times
  BMP4 expression log2 [ratio]: 0.864
[10]
  CCBE1 expression R*: Ratio to control: 1.755 times
  CCBE1 expression log2 [ratio]: 0.811
[11]
  HSPE1 expression R*: Ratio to control: 1.531 times
  HSPE1 expression log2 [ratio]: 0.615
[12]
  RTN4 expression R*: Ratio to control: 1.510 times
  RTN4 expression log2 [ratio]: 0.594
[13]
  CYP4V2 gene expression, R* ratio to control: 2.178 times
  CYP4V2 gene expression, log2 [ratio]: 1.123
[14]
  PHLDA3 expression R: Ratio to control: 0.271 times
  PHLDA3 expression log2 [ratio]: −1.884
[15]
  FAS expression R*: Ratio to control: 0.364 times
  FAS expression log2 [ratio]: −1.457
[16]
  HTATIP2 gene expression, R* ratio to control: 1.735 times
  HTATIP2 gene expression, log2 [ratio]: 0.795
[17]
  HTATIP2 expression R*: Ratio to control: 1.735 times
  HTATIP2 expression log2 [ratio]: 0.795
[18]
  IL11 gene expression, R* ratio to control: 0.358 times
  IL11 gene expression, log2 [ratio]: −1.482
[19]
  BMP7 gene expression, R* ratio to control: 0.136 times
  BMP7 gene expression, log2 [ratio]: −2.883
[20]
  COL8A1 expression R*: Ratio to control: 1.999 times
  COL8A1 expression log2 [ratio]: 0.999
[21]
  VEGFA gene expression, R* ratio to control: 0.501 times
  VEGFA gene expression, log2 [ratio]: −0.997
[22]
  IL1A gene expression, R* ratio to control: 0.216 times
  IL1A gene expression, log2 [ratio]: −2.211
[23]
  IL1A expression R*: Ratio to control: 0.216 times
  IL1A expression log2 [ratio]: −2.211
[24]
  YWHAE expression R*: Ratio to control: 1.529 times
  YWHAE expression log2 [ratio]: 0.813 and 0.613
[25]
  TP73 expression R*: Ratio to control: 0.557 times
  TP73 expression log2 [ratio]: −0.843
[26]
  WARS2 expression R*: Ratio to control: 1.594 times
  WARS2 expression log2 [ratio]: 0.673
[27]
  IL23A gene expression, R* ratio to control: 0.508 times
  IL23A gene expression, log2 [ratio]: −0.977
[28]
  VEGFA gene expression, R* ratio to control: 0.611 times
  VEGFA gene expression, log2 [ratio]: −0.710
[29]
  STK17A expression R*: Ratio to control: 0.623 times
  STK17A expression log2 [ratio]: −0.683
[30]
  BTG1 expression R*: Ratio to control: 0.41B
  BTG1 expression log2 [ratio]: −1.265
[31]
  TGFB3 expression R*: Ratio to control: 0.590 times
  TGFB3 expression log2 [ratio]: −0.761
[32]
  NR2F2 expression R*: Ratio to control: 1.662 times
  NR2F2 expression log2 [ratio]: 0.733
[33]
  NLRP1 expression R*: Ratio to control: 0.483 times
  NLRP1 expression log2 [ratio]: −1.048
[34]
  MAPRE2 expression R*: Ratio to control: 1.538 times
  MAPRE2 expression log2 [ratio]: 0.621
[35]
  STEAP3 gene expression, R* ratio to control: 2.194 times
  STEAP3 gene expression, log2 [ratio]: 1.134
[36]
  ITSN1 expression R*: Ratio to control: 3.487 times
  ITSN1 expression log2 [ratio]: 1.802
Probe A_23_P92025, 1 mM EP, 24 h
  CIDEC expression R*: Ratio to control: 0.593 times
